Patent US11161876B2, “Anti-inflammatory nanofibers” (Northwestern University, priority 2015, dated 2021)
“Also recorded” adds a separate entry of the source. * marks the point of attachment. C16 alkyl = CCCCCCCCCCCCCCCC*

Tests used:
Conditions in all cases: 10 days post-augmentation; compared between groups
[1] = tested on: Rat Bladder Augmentation Model; experiment: Blood vessel quantification in areas of bladder tissue regeneration; type: in vivo
Method: (§1) Athymic female rats (weighing ˜200 g and 8-10 weeks old; National Cancer Institute Animal Production Program) underwent bladder augmentation (ref. 15; herein incorporated by reference in its entirety). Athymic rats were chosen for this study to solely examine the innate immune response to inflammation without influence of the adaptive immune response. In order to induce anesthesia, animals were given intraperitoneal injections of 60 mg/kg ketamine and 5 mg/kg xylazine. A second injection consisting of Buprenex (1 mg/kg) was administered subcutaneously to alleviate any pain/discomfort during and following surgical procedures. An approximate 1.5 cm midline vertical skin incision was created to expose the abdominal fascia and muscles. This was immediately followed by the separation of the wall leading to the identification of the bladder. An approximate 70% supratrigonal cystectomy was performed from anterior to posterior creating a clamshell. Immediately prior to bladder augmentation procedures, samples of the pro-inflammatory biological scaffold, small intestinal submucosa (SIS (0.5×0.5 cm); Cook Biotech.) (refs. 12,13,16; herein incorporated by reference in their entireties) were thoroughly dip-coated separately in one of the previously described AIF-PAs following gelation procedures. The sections of SIS were dip-coated for approximately 20 seconds and allowed to adhere to the SIS for an additional 30 seconds. Dip-coating procedures were performed at room temperature in air. The cystectomized bladder defect was then augmented with: 1) SIS (non-AIF-PA coated SIS; n=8 animals over both time-points); 2) AIF-PA1 coated SIS (denoted as SIS/AIF-PA1; n=11 animals over both time-points); 3) AIF-PA2 coated SIS (denoted as SIS/AIF-PA2; n=8 animals over both time-points); 4) AIF-PA3 coated SIS (denoted as SIS/AIF-PA3; n=3); 5) AIF-PA4 coated SIS (denoted as SIS/AIF-PA4; n=3 animals); 6) AIF-PA5 coated SIS (denoted as SIS/AIF-PA5; n=3 animals); and 7) AIFC-PA6 coated SIS (denoted as SIS/AIFC-PA6; n=9 animals over both time-points). The bladder was finally covered with omentum after being closed in a watertight manner utilizing 7-0 polyglactin suture. The abdominal wall was then closed in a single layer with 5-0 ethibond running suture and the skin re-approximated with 9 mm autoclips. Each group was sacrificed at 10 day and 5 week time-points.
Trichrome sample images were opened with Adobe Photoshop CS3 and were initially characterized utilizing a Nikon Eclipse 50i Microscope in addition to Spot Advanced Imaging Software. Vessel numbers were quantified utilizing the pen tool based upon n=10 images per graft in regenerated areas. Individual vessels were selected manually and subsequently quantified using the image histogram tool to acquire pixel density for each vessel. Data is represented as mean number of vessels/mm^2 (means±SE).

[2] = tested on: Rat Bladder Augmentation Model; experiment: Bladder tissue collagen quantification (Masson's Trichrome); type: in vivo
Method: as §1
Explanted bladder specimens encompassing the entire thickness of the bladder were isolated immediately following euthanasia and processed (ref. 15; herein incorporated by reference in its entirety). Specimens were fixed in a 10% buffered formalin phosphate (Fisher Scientific, Inc.) solution followed by a series of graded ethanol exchanges then embedded in paraffin (Fisher Scientific). Embedded tissues were sectioned onto glass slides at a thickness of 10 μm using a RM2125 RT Microtome (Leica) onto glass slides and subjected to staining with Masson's Trichrome (Sigma-Aldrich Corp.) reagent. The paraffin was removed from tissue containing slides using a hot plate at 62° C. for 6 minutes and was followed by treatment with xylenes, graded ethanol washes and DI water. Slides were placed in Bouin's solution (Sigma-Aldrich Corp.) for approximately 15 min then rinsed under running tap water. The samples were then stained 5 minutes with Hematoxylin and rinsed with running water and subsequently stained with Scarlet-Acid Fuchsin (Sigma-Aldrich Corp.). Slides were rinsed again with DI water and placed into a mixture of PTA/PMA, followed by Aniline Blue solution and a 1% acetic acid wash. Finally, slides were placed in 95-100% ethanol and rinsed in xylene. Following air drying, a coverslip was placed over the specimen sample and secured with Permaslip (Alban Scientific Inc).
Bladder tissue specimens were evaluated for collagen content (refs. 13,15,17; herein incorporated by reference in their entireties). […]

CD68+ macrophages = experiment: Immunofluorescence quantification of CD68+ macrophages in regenerated bladder tissue; type: in vivo, rat
Method: as §1
(§2) Tissue sections comprised of SIS alone, SIS/AIF-PA1, SIS/AIF-PA2, and SIS/AIF-PA6 augmentations were subjected to immunofluorescence staining by initially undergoing antigen retrieval which consisted of 15 min of boiling in citrate buffer (0.01M citrate solution, pH 6.0 with 0.05% Tween-20) followed by cooling at room temperature for approximately 20 minutes. The antibody staining process consisted of a blocking step for 15 min in bovine serum albumin (BSA, 5 mg/ml) followed by a 40 minutes incubation at room temperature with the primary antibody. After washing with DPBS, slides were incubated for 30 min with a secondary antibody and eventually rinsed with DPBS and air dried. Slides were mounted with Vectashield (Vector Laboratories). Primary antibodies were directed against epitopes for the inflammatory markers CD68 (macrophage) (refs. 18,19; herein incorporated by reference in their entireties) MPO (neutrophil) (ref. 20; herein incorporated by reference in its entirety) or the inflammation-related proteins IL1β, TNFα, IL-10, IL-13, CD206 (M2 macrophage) (refs. 21-25; herein incorporated by reference in their entireties) and CD86 (M1 macrophage) (ref. 26; herein incorporated by reference in its entirety). Antibodies directed against the ECM in regenerating bladder tissue (including COL4A3 and fibronectin) were also utilized. Alexa Red 555 or FITC conjugated secondary antibodies (Molecular Probes) were utilized for visualization (ref. 15; herein incorporated by reference in its entirety). […]

MPO+ neutrophils = experiment: Immunofluorescence quantification of MPO+ neutrophils in regenerated bladder tissue; type: in vivo, rat
Method: as §1, §2

Substance	blood vessel formation, in words [1]	collagen levels, in words [2]	CD68+ macrophage levels, in words (CD68+ macrophages)	MPO+ neutrophil levels, in words (MPO+ neutrophils)
C16-VVVAAAEEEDPVKG (SEQ ID NO:5) ({C16 alkyl}-VVVAAAEEEDPVKG-NH2) [SIS/AIF-PA5, anti-inflammatory peptide amphiphile, tested dip-coated on small intestinal submucosa (SIS) scaffold]	least level of blood vessel formation; also recorded: not significantly different from those of control groups	not significantly different from those of control groups	–	–
C16-VVVAAAEEEKVLDGQDP (SEQ ID NO:4) ({C16 alkyl}-VVVAAAEEEKVLDGQDP-NH2) [SIS/AIF-PA4, anti-inflammatory peptide amphiphile, tested dip-coated on small intestinal submucosa (SIS) scaffold]	greater numbers of vessels/mm2	lower mean collagen levels	significantly lower	significantly lower
C16-VVVAAAEEEKVLDPVKG (SEQ ID NO:3) ({C16 alkyl}-VVVAAAEEEKVLDPVKG-NH2) [SIS/AIF-PA3, anti-inflammatory peptide amphiphile, tested dip-coated on small intestinal submucosa (SIS) scaffold]	greater numbers of vessels/mm2	lower mean collagen levels	comparable macrophage levels to SIS/AIF-PA1; also recorded: significantly lower	–
